Reference: EP3345917A1, “ANTIPROTOZOAL COMPOUNDS” (Bacoba AG, priority 2017, dated 2018)
Where “and” joins values, the source holds several entries; their conditions need not be identical. Equal entries are not always repeated. Entries after “also recorded” stand apart in the source; their conditions may differ. Where two headings read alike, the source gives them in different places. Non-standard residues stand in square brackets, D forms with d. Residues, ends and D or L forms follow the SMILES beside them. *: point of attachment. NH(1-CH2NMe2-cBu) = CN(C)CC1(N*)CCC1; Oxazole4CO(2-Me) = Cc1nc(C(=O)*)co1; Benzoyl(4-F) = O=C(c1ccc(F)cc1)*; hCha = N[C@@H](CCC1CCCCC1)C(=O)O; Aib = CC(C)(N)C(=O)O; βAla = NCCC(=O)O

What was measured:
[1] = tested on: Plasmodium falciparum K1 strain; assay: microbe, parasite or virus in culture
Experimental: (§1) Testing of compounds against Plasmodium falciparum (K1 strain), Trypanosoma brucei rhodesiense (STIB 900 strain), Trypanosoma cruzi trypomastigote forms (Tulahuen strain), and Leishmania donovani (strain MHOM/ET/67/L82) was performed in 96 well plates at concentrations in serial dilutions. Tests were done in triplicate. IC50 values against the parasites as well as cytotoxic effects against rat myoblast (L6-cells) were determined by serial dilution and repeated twice.
Determination of activity against Plasmodium falciparum K1 strain was done using a modified version of the ^3H-hypoxanthine incorporation assay by Trager and Jensen (Trager W. and Jensen, J.B. Science 1976; 193:673-675). After incubation the plates were harvested using a Betaplate cell harvester (Wallac, Switzerland) onto glass-fiber filters and washed. The dried filters were inserted into plastic foils with 10 ml scintillation fluid. The radioactivity was counted with a Betaplate liquid scintillation counter (Wallac, Switzerland) as counts per minute per well at each drug concentration and compared to the untreated controls. […] IC50 values were calculated by linear interpolation. All assays were run in duplicate and repeated two times.

[2] = tested on: intracellular Leishmania donovani (L.don. InMac); assay: Intracellular Leishmania donovani assay (L.don. InMac); type: cell-based; settings: In vitro inhibition
Excerpt: (§2) Tests were done in triplicate.

[3] = Cytotoxicity assay on L6-cells (Alamar Blue); settings: rat, Cytotox L6, Cytotoxicity against rat myoblast cells (L6)
[4] = tested on: Trypanosoma brucei brucei; assay: Acute mouse sleeping sickness model (in vivo antitrypanosomal activity); settings: for Mean day of relapse / Mean day of survival / animals surviving until day 31: group of four mice; for Day of relapse / Parasitaemia day 7 / Parasitaemia day 10 / Parasitaemia day 14 / Parasitaemia day 17 / Parasitaemia day 21 / Parasitaemia day 24 / Parasitaemia day 28 / Parasitaemia day 31 / Survival days: individual mice; for parasitaemia on day 7: day 7 post infection; for reduction of parasitaemia compared to untreated controls: four mice; on Parasitaemia day 7: key: 0 = no parasite in 20 fields of view; ((+)) = 1 Trypanosome in 20 fields of view; (+) = 1 Trypanosome per field of view; + = 2 - 5 Trypanosomes per field of view; ++ = 6 - 20 Trypanosomes per field of view, the mouse is killed; +++ = > 20 Trypanosomes per field of view, the mouse is killed
Experimental: This model mimics the first stage of the human African trypanosomiasis. Adult female NMRI mice were purchased from Janvier (St. Berthevin, France). They weighed between 20 and 25 g at the beginning of the study and were kept under standard conditions at 22 °C and 60-70% humidity in macro Ion type III cages with food pellets and water ad libitum. The samples were first dissolved in 100% DMSO, followed by addition of distilled H2O to a final DMSO concentration of 10%. For determination of the in vivo antitrypanosomal activity, mice were infected intraperitoneally with 1 x 10^4 STIB900 bloodstream forms. […] A control group of four mice was infected, but remained untreated. The determination of the parasitaemia was done on days 7, 10, 14, 17, 21, 24, 28, and 31 post infection. To do this 6 µL of tail blood were diluted in 24 µL sodium citrate (3.2%), whereby the first µL was discarded to obtain circulating blood. Five µL of this mixture were transferred to a glass slide and covered with an 18 x 18 mm cover slide. The sample was examined under a light microscope (200-fold magnification) and parasites were counted in 3 of the 16 squares of the grid.

Plasmodium falciparum = assay: 3H-hypoxanthine incorporation assay against Plasmodium falciparum; type: cell-based; settings: In vitro inhibition, read-out: P.falc NF5
Experimental: as §2
IC50 values were calculated by linear interpolation.

[5] = tested on: Trypanosoma brucei rhodesiense (STIB 900 strain); assay: Alamar Blue assay against Trypanosoma brucei rhodesiense grown in axenic medium; type: cell-based; settings: In vitro inhibition, read-out: T.b.rhod.
Method in brief: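 Alamar Blue-based IC50 determination, in triplicate, on axenically grown STIB 900 trypanosomes. Melarsoprol included as reference.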

[6] = tested on: Axenically grown Leishmania donovani amastigotes (strain MHOM/ET/67/L82); assay: Axenic Leishmania donovani amastigote resazurin assay; type: cell-based; settings: In vitro inhibition, read-out: L.don. ax
Method in brief: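 IC50 values derive from resazurin fluorescence (ex 536 nm, em 588 nm), expressed relative to the negative control, after 2-4 hours of plate development. Axenic amastigotes of strain MHOM/ET/67/L82 were used; each test run in triplicate.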

[7] = tested on: Trypanosoma cruzi trypomastigote forms (Tulahuen strain); assay: Intracellular Trypanosoma cruzi assay in L6-cells, beta-galactosidase/CPRG readout; type: cell-based; settings: In vitro inhibition, read-out: T.cruzi.
Method in brief: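 Readout was β-galactosidase cleavage of CPRG, read photometrically at 540 nm after 2–6 h colour development, giving IC50 values. Parasites: LacZ-expressing Tulahuen C2C4 strain grown in rat L6 myoblasts; run in triplicate.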

[8] = Cytotoxicity assay on L6-cells (Alamar Blue); settings: rat, L6 rat myoblast cells
Experimental: as §1

rat myoblast (L6-cells) = assay: Cytotoxicity assay on L6-cells (Alamar Blue); settings: Rattus norvegicus, Myoblast, 70 h
Experimental: as §1

[9] = 3 mg/kg per injection, 2 per day, 4 treatment days, i.p.
[10] = 3 mg/kg twice a day for 4 days, intraperitoneally
[11] = 30 mg/kg per injection, 1 per day, 4 treatment days, p.o.
[12] = 3 mg/kg per injection, 2 per day, 2 treatment days, i.p.
[13] = 3 mg/kg twice a day for 2 days, intraperitoneal

In the case of CCN(CC)CCCC(C)Nc1ccnc2cc(Cl)ccc12 (stereo not drawn) [Chloroquine], the IC50 ([1]; K1) is reported as 50 ± 10 nM and the IC50 ([1]; K1, read-out: P.falc NF5) is reported as 6.25 nM.
In the case of Cc1nc(C(=O)N2CCC[C@H]2C(=O)N[C@@H](CCC2CCCCC2)C(=O)N[C@@H](CC(C)C)C(=O)NC(C)(C)C(=O)N[C@@H](CC(C)C)C(=O)N[C@@H](CC(C)C)C(=O)NC(C)(C)C(=O)NC(C)(C)C(=O)NCCC(=O)NC2(CN(C)C)CCC2)co1 [Compound 6025, (2S)-2-[(2S)-4-cyclohexyl-2-{[(2S)-1-(2-methyl-1,3-oxazole-4-carbonyl)pyrrolidin-2-yl]formamido}butanamido]-N-(1-{[(1S)-1-{[(1S)-1-({1-[(1-{[2-({1-[(dimethylamino)methyl]cyclobutyl}carbamoyl)ethyl]carbamoyl}-1-methylethyl)carbamoyl]-1-methylethyl}carbamoyl)-3-methylbutyl]carbamoyl}-3-methylbutyl]carbamoyl}-1-methylethyl)-4-methylpentanamide] ({Oxazole4CO(2-Me)}-P[hCha]L[Aib]LL[Aib][Aib][βAla]-{NH(1-CH2NMe2-cBu)}), the IC50 [2] is reported as 41.1 nM, the IC50 at 70 h [3] is reported as 1910 nM and the “Mean day of relapse” value [4, 9] is reported as 15 days. The “Mean day of survival” value [4, 9] was 28 days, the Day of relapse [4, 9] was 10 day and 17 day (2×) and the “Parasitaemia day 7” value [4, 9] was 0. For the same compound, the “Parasitaemia day 10” value [4, 9] was 0 (3×) and ((+)) (((+)) = 1 Trypanosome in 20 fields of view), the “Parasitaemia day 14” value [4, 9] was 0 and the “Parasitaemia day 17” value [4, 9] was 0 and ((+)) (((+)) = 1 Trypanosome in 20 fields of view) and ++ (++ = 6 - 20 Trypanosomes per field of view, the mouse is killed) and (+) ((+) = 1 Trypanosome per field of view). For the same compound, the “Parasitaemia day 21” value [4, 9] was 0 (2×) and (+) ((+) = 1 Trypanosome per field of view), the “Parasitaemia day 24” value [4, 9] was 0 (2×) and ((+)) (((+)) = 1 Trypanosome in 20 fields of view) and the “Parasitaemia day 28” value [4, 9] was 0. The “Parasitaemia day 31” value [4, 9] was 0 (2×) and (+) ((+) = 1 Trypanosome per field of view), the Survival days [4, 9] was 31 days (3×) and 17 days and the animals surviving treatment [4, 10] was “all animals survived treatment”. The “parasitaemia on day 7” value [4, 10] was “no observable parasitaemia”, the “reduction of parasitaemia compared to untreated controls” value (shortened to “reduction of parasitaemia”) [4, 10] was “significant reduction of parasitaemia” and the “animals surviving until day 31” value [4, 10] was “three out of four”. The “animals with no observable parasitaemia at day 31” value ([4]; 3 mg/kg twice a day for 4 days, intraperitoneally, of the three survivors) was 2, the “Mean day of relapse” value [4, 11] was 15 days and the “Mean day of survival” value [4, 11] was 21 days. The Day of relapse [4, 11] was 17 day (2×) and 14 day and 10 day, the “Parasitaemia day 7” value [4, 11] was 0 and the “Parasitaemia day 10” value [4, 11] was 0 (3×) and ((+)) (((+)) = 1 Trypanosome in 20 fields of view). The “Parasitaemia day 14” value [4, 11] was 0 (2×) and (+) ((+) = 1 Trypanosome per field of view) (2×), the “Parasitaemia day 17” value [4, 11] was “+ (+ = 2 - 5 Trypanosomes per field of view); also recorded: ++ (++ = 6 - 20 Trypanosomes per field of view, the mouse is killed)” and the “Parasitaemia day 21” value [4, 11] was “((+)) (((+)) = 1 Trypanosome in 20 fields of view)”. For the same compound, the “Parasitaemia day 24” value [4, 11] was “(+) ((+) = 1 Trypanosome per field of view)”, the “Parasitaemia day 28” value [4, 11] was “+ (+ = 2 - 5 Trypanosomes per field of view)” and the “Parasitaemia day 31” value [4, 11] was “+++ (+++ = > 20 Trypanosomes per field of view, the mouse is killed)”. The Survival days [4, 11] was 20 days and 17 days (2×) and 31 days, the animals surviving treatment ([4]; mouse, in vivo, po, 30 mg/kg) was “all animals survived treatment” and the “relapse by day 17” value ([4]; orally at 30 mg/kg once a day) was “all had relapsed”. The “parasitaemia on day 7” value ([4]; orally at 30 mg/kg once a day) was “no observable parasitaemia”, the “reduction of parasitaemia” value ([4]; orally at 30 mg/kg once a day) was “significant reduction of parasitaemia” and the “animals surviving until day 31” value ([4]; orally at 30 mg/kg once a day) was “one”. It also gave an IC50 (Plasmodium falciparum) of 20.9 µM, an IC50 [5] of 0.5 nM and an IC50 [6] of 31.3 µM. The IC50 [7] was 215 nM.
In the case of CC(C)C[C@H](NC(=O)[C@H](CCC1CCCCC1)NC(=O)[C@@H]1CCCN1C(=O)c1ccc(F)cc1)C(=O)NC(C)(C)C(=O)N[C@@H](CC(C)C)C(=O)N[C@@H](CC(C)C)C(=O)NC(C)(C)C(=O)NC(C)(C)C(=O)NCCC(=O)NC1(CN(C)C)CCC1 [Compound 6027, (2S)-2-[(2S)-4-cyclohexyl-2-{[(2S)-1-(4-fluorobenzoyl)pyrrolidin-2-yl]formamido}butanamido]-N-(1-{[(1S)-1-{[(1S)-1-({1-[(1-{[2-({1-[(dimethylamino)methyl]cyclobutyl}carbamoyl)ethyl]carbamoyl}-1-methylethyl)carbamoyl]-1-methylethyl}carbamoyl)-3-methylbutyl]carbamoyl}-3-methylbutyl]carbamoyl}-1-methylethyl)-4-methylpentanamide] ({Benzoyl(4-F)}-P[hCha]L[Aib]LL[Aib][Aib][βAla]-{NH(1-CH2NMe2-cBu)}), the IC50 [2] is reported as 54.2 nM, the IC50 at 70 h [3] is reported as 1390 nM and the “Mean day of relapse” value [4, 12] is reported as 17 days. For the same compound, the “Mean day of survival” value [4, 12] was 18 days, the Day of relapse [4, 12] was 17 days and the “Parasitaemia day 7” value [4, 12] was 0. The “Parasitaemia day 10” value [4, 12] was 0, the “Parasitaemia day 14” value [4, 12] was 0 and the “Parasitaemia day 17” value [4, 12] was “++ (++ = 6 - 20 Trypanosomes per field of view, the mouse is killed); also recorded: + (+ = 2 - 5 Trypanosomes per field of view)”. For the same compound, the “Parasitaemia day 21” value [4, 12] was “((+)) (((+)) = 1 Trypanosome in 20 fields of view)”, the “Parasitaemia day 24” value [4, 12] was “((+)) (((+)) = 1 Trypanosome in 20 fields of view)” and the “Parasitaemia day 28” value [4, 12] was “(+) ((+) = 1 Trypanosome per field of view)”. The “Parasitaemia day 31” value [4, 12] was “(+) ((+) = 1 Trypanosome per field of view)”, the Survival days [4, 12] was 17 days (2×) and 31 days and 5 days and the “parasitaemia by day 17” value [4, 13] was “all surviving animals showed parasitaemia”. The “parasitaemia of the surviving animal at day 31” value [4, 13] was “low parasitaemia”, the “animals sacrificed after parasitaemia relapse” value ([4]; 3 mg/kg twice a day for 2 days, intraperitoneal, after day 17) was “two” and the “parasitaemia on day 7” value [4, 13] was “no observable parasitaemia”. For the same compound, the “reduction of parasitaemia” value [4, 13] was “significant reduction of parasitaemia”, the “animals surviving until day 31” value [4, 13] was “one” and the animals surviving treatment ([4]; 3 mg/kg twice a day for 2 days, intraperitoneal, one death on day 5 for unspecified reasons) was “all animals survived treatment, except for one”. For the same compound, the IC50 (Plasmodium falciparum) was 42.5 µM, the IC50 [5] was 0.4 nM and the IC50 [6] was 34.1 µM. For the same compound, the IC50 [7] was 155 nM.
COc1cc([C@@H]2c3cc4c(cc3[C@H](O)[C@H]3COC(=O)[C@H]23)OCO4)cc(OC)c1OC [Podophyllotoxin] gave an IC50 at 70 h [8] of 19.3 nM and an IC50 (rat myoblast (L6-cells)) of 50 ± 10 nM.
